Measurements published in patent US11078202B2, “β-lactamase inhibitor and use thereof” (priority 2018, dated 2021).
Structures can show the parent of a compound that is named as a salt.

How the values were obtained:
Assay type in all cases: cell-based
[1] = system: Klebsiella pneumoniae XNWB 0005; test: MIC assay of test compounds combined with imipenem (4 μg/mL); conditions: imipenem 4 μg/mL fixed
Outline: (§1)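 Strains were revived from −80 °C stocks on TSA, subcultured, and single colonies were resuspended in saline to OD600 0.1-0.15. After a 300-fold dilution in 1.1×CAMHB, cells were combined with diluted compound and a fixed antibiotic. Growth was assessed after 16-20 h at 35±2 °C.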

[2] = system: Klebsiella pneumoniae XNWB 0003; test: as above; conditions: imipenem 4 μg/mL fixed
Outline: as §1

[3] = system: Klebsiella pneumoniae XNWB 0002; test: as above; conditions: imipenem 4 μg/mL fixed
Outline: as §1

[4] = system: Klebsiella pneumoniae XNWB 0001; test: as above; conditions: imipenem 4 μg/mL fixed
Outline: as §1

[5] = system: Pseudomonas aeruginosa XNWB 0008; test: as above; conditions: imipenem 4 μg/mL fixed
Outline: as §1

[6] = system: Klebsiella pneumoniae XNWB 0004; test: as above; conditions: imipenem 4 μg/mL fixed
Outline: as §1

[7] = system: Klebsiella pneumoniae XNWB 0006; test: as above; conditions: imipenem 4 μg/mL fixed
Outline: as §1

[8] = system: Acinetobacter baumannii XNWB 0007; test: as above; conditions: imipenem 4 μg/mL fixed
Outline: as §1

[9] = system: Klebsiella pneumoniae XNWB 0005; test: MIC assay of test compounds combined with ceftazidime (8 μg/mL); conditions: ceftazidime 8 μg/mL fixed
Outline: as §1

[10] = system: Klebsiella pneumoniae XNWB 0003; test: as above; conditions: ceftazidime 8 μg/mL fixed
Outline: as §1

[11] = system: Klebsiella pneumoniae XNWB 0002; test: as above; conditions: ceftazidime 8 μg/mL fixed
Outline: as §1

[12] = system: Klebsiella pneumoniae XNWB 0001; test: as above; conditions: ceftazidime 8 μg/mL fixed
Outline: as §1

[13] = system: Pseudomonas aeruginosa XNWB 0008; test: as above; conditions: ceftazidime 8 μg/mL fixed
Outline: as §1

[14] = system: Klebsiella pneumoniae XNWB 0004; test: as above; conditions: ceftazidime 8 μg/mL fixed
Outline: as §1

[15] = system: Klebsiella pneumoniae XNWB 0006; test: as above; conditions: ceftazidime 8 μg/mL fixed
Outline: as §1

[16] = system: Acinetobacter baumannii XNWB 0007; test: as above; conditions: ceftazidime 8 μg/mL fixed
Outline: as §1

| SMILES | The minimum concentration of test compounds combined with imipenem (4 μg/mL) for bacteriostasis [1] | The minimum concentration of test compounds combined with imipenem (4 μg/mL) for bacteriostasis [2] | The minimum concentration of test compounds combined with imipenem (4 μg/mL) for bacteriostasis [3] | The minimum concentration of test compounds combined with imipenem (4 μg/mL) for bacteriostasis [4] | The minimum concentration of test compounds combined with imipenem (4 μg/mL) for bacteriostasis [5] | The minimum concentration of test compounds combined with imipenem (4 μg/mL) for bacteriostasis [6] | The minimum concentration of test compounds combined with imipenem (4 μg/mL) for bacteriostasis [7] | The minimum concentration of test compounds combined with imipenem (4 μg/mL) for bacteriostasis [8] | The minimum concentration of test compounds combined with ceftazidime (8 μg/mL) for bacteriostasis [9] | The minimum concentration of test compounds combined with ceftazidime (8 μg/mL) for bacteriostasis [10] | The minimum concentration of test compounds combined with ceftazidime (8 μg/mL) for bacteriostasis [11] | The minimum concentration of test compounds combined with ceftazidime (8 μg/mL) for bacteriostasis [12] | The minimum concentration of test compounds combined with ceftazidime (8 μg/mL) for bacteriostasis [13] | The minimum concentration of test compounds combined with ceftazidime (8 μg/mL) for bacteriostasis [14] | The minimum concentration of test compounds combined with ceftazidime (8 μg/mL) for bacteriostasis [15] | The minimum concentration of test compounds combined with ceftazidime (8 μg/mL) for bacteriostasis [16] |
| --- | --- | --- | --- | --- | --- | --- | --- | --- | --- | --- | --- | --- | --- | --- | --- | --- |
| O=C1N2C[C@H](N1OS(=O)(=O)O)C1(CC1)C[C@H]2c1ccon1 [Example 54, (1R,4S)-4-(isoxazol-3-yl)-6-oxo-5,7-diazaspiro[bicyclo[3.2.1]octane-2,1′-cyclopropan]-7-yl sulfate] | A (A: <8 μg/mL) | A (A: <8 μg/mL) | A (A: <8 μg/mL) | A (A: <8 μg/mL) | C (C: 16-128 μg/mL) | A (A: <8 μg/mL) | A (A: <8 μg/mL) | C (C: 16-128 μg/mL) | C (C: 16-128 μg/mL) | B (B: 8-16 μg/mL) | A (A: <8 μg/mL) | B (B: 8-16 μg/mL) | C (C: 16-128 μg/mL) | C (C: 16-128 μg/mL) | A (A: <8 μg/mL) | C (C: 16-128 μg/mL) |
| O=C1N2C[C@H](N1OS(=O)(=O)O)C1(CC1)C[C@H]2c1cc(C2CCCNC2)on1 (stereo partly drawn) [Example 44, (1R,4S)-6-oxo-4-(5-(piperidin-3-yl)isoxazol-3-yl)-5,7-diazaspiro[bicyclo[3.2.1]octane-2,1′-cyclopropan]-7-yl sulfate] | A (A: <8 μg/mL) | A (A: <8 μg/mL) | A (A: <8 μg/mL) | A (A: <8 μg/mL) | A (A: <8 μg/mL) | A (A: <8 μg/mL) | A (A: <8 μg/mL) | C (C: 16-128 μg/mL) | A (A: <8 μg/mL) | A (A: <8 μg/mL) | A (A: <8 μg/mL) | A (A: <8 μg/mL) | B (B: 8-16 μg/mL) | B (B: 8-16 μg/mL) | A (A: <8 μg/mL) | C (C: 16-128 μg/mL) |
